PubChem BioAssay AID602121 (Johns Hopkins Ion Channel Center, 2011)
pEC50: −log10 of the molar value. Active and inactive are the calls of the source.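 The calls were made as follows: active = opens the KCNQ1 potassium channel at some tested dose and gives a fittable dose response curve; inactive = the rest.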

Biological target: Potassium voltage-gated channel subfamily KQT member 1 (Homo sapiens) (UniProt P51787)
Test: KCNQ1 potassium current enhancement – automated patch clamp, CHO cells, set 2, SAR follow-up (AID 602121)
Conditions: for current activation: at 30 µM (top of the series)

Chain of Potassium voltage-gated channel subfamily KQT member 1 (Homo sapiens) (P51787 whole entry, looked up): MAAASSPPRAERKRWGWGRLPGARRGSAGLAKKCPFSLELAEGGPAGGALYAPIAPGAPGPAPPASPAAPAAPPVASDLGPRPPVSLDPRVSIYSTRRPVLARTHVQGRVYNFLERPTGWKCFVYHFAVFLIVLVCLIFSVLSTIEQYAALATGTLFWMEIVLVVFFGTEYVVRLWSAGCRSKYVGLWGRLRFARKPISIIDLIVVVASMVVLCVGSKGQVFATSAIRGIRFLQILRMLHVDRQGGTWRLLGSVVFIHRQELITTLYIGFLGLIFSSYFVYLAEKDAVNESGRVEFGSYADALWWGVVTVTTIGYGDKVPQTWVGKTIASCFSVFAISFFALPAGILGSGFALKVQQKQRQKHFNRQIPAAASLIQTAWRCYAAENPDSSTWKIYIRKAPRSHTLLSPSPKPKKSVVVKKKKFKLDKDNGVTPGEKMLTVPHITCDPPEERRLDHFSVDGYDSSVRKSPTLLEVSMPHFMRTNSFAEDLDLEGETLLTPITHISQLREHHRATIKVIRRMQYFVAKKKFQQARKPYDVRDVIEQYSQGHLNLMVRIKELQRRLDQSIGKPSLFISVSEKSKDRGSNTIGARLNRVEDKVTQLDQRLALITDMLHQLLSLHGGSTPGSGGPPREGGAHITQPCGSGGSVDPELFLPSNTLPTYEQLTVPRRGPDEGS

Row | current activation | pEC50 | SMILES
1 | inactive | – | COC(=O)c1cccc(NC(=O)[C@H]2CCCCN2S(=O)(=O)c2ccc(C)cc2)c1
2 | – | 5.49 | Cc1ccc(S(=O)(=O)N2CCCC[C@@H]2C(=O)Nc2cccc(C(F)(F)F)c2)cc1
3 | inactive | – | Cc1ccc(S(=O)(=O)N2CCCC[C@@H]2C(=O)Nc2ccccc2)cc1
4 | inactive | – | Cc1ccc(S(=O)(=O)N2CCCC[C@@H]2C(=O)Nc2cccc([N+](=O)[O-])c2)cc1
5 | inactive | – | COc1cccc(NC(=O)[C@H]2CCCCN2S(=O)(=O)c2ccc(C)cc2)c1
6 | – | 5.48 | Cc1ccc(S(=O)(=O)N2CCCC[C@@H]2C(=O)Nc2ccc(F)c(C)c2)cc1

More lines, now with the values behind:

Row | SMILES | current activation | pEC50
7 | Cc1ccc(S(=O)(=O)N2CCCC[C@@H]2C(=O)Nc2cccc(Cl)n2)cc1 | inactive | –
8 | Cc1ccc(S(=O)(=O)N2CCCC[C@@H]2C(=O)Nc2ccncc2)cc1 | inactive | –
9 | COc1ccc(-c2csc(NC(=O)[C@H]3CCCCN3S(=O)(=O)c3ccc4c(c3)OCO4)n2)cc1 | – | 6.11
10 | CCc1cccc(NC(=O)[C@H]2CCCCN2S(=O)(=O)c2ccc(C)cc2)n1 | inactive | –
11 | Cc1ccc(S(=O)(=O)N2CCCC[C@@H]2C(=O)Nc2ccc(C)c(Br)c2)cc1 | inactive | –
12 | Cc1ccc(S(=O)(=O)N2CCCC[C@@H]2C(=O)Nc2ccc(C)c(C)c2)cc1 | – | 5.65
